ChEMBL document CHEMBL4229426, “Synthesis, antitumor activity evaluation and mechanistic study of novel hederacolchiside A1 derivatives bearing an aryl triazole moiety” (Bioorg Med Chem, 2018)

Legend:
Assay type in all cases: functional, cell-based
PC-3 = assay: Antiproliferative activity against human PC3 cells after 48 hrs by MTT assay; details: PC-3, 48 h
HT-29 = assay: Antiproliferative activity against human HT-29 cells after 48 hrs by MTT assay; details: HT-29, 48 h
HL-60 = assay: Antiproliferative activity against human HL60 cells after 48 hrs by MTT assay; details: HL-60, 48 h
U-937 = assay: Antiproliferative activity against human U937 cells after 48 hrs by MTT assay; details: U-937, 48 h
A549 = assay: Antiproliferative activity against human A549 cells after 48 hrs by MTT assay; details: A549, 48 h
HepG2 = assay: Antiproliferative activity against human HepG2 cells after 48 hrs by MTT assay; details: HepG2, 48 h

Q: With `COc1ccccc1-n1cc(CNC(=O)[C@]23CCC(C)(C)C[C@H]2C2=CC[C@@H]4[C@@]5(C)CC[C@H](O[C@@H]6OC[C@H](O[C@@H]7O[C@H](CO)[C@@H](O)[C@H](O)[C@H]7O)[C@H](O)[C@H]6O[C@@H]6O[C@@H](C)[C@H](O)[C@@H](O)[C@H]6O)C(C)(C)[C@@H]5CC[C@@]4(C)[C@]2(C)CC3)nn1` as the compound, how does the IC50 (PC-3) read?
A: 38 µM

Q: And the IC50 (HT-29)?
A: 44.4 µM

Q: And the IC50 (HL-60)?
A: 12.2 µM

Q: What about the IC50 (U-937) of the same compound?
A: 7.73 µM

Q: And the IC50 (A549)?
A: 6.99 µM

Q: And the IC50 (HepG2)?
A: 17.7 µM

Q: Which results are given for `C[C@@H]1O[C@@H](O[C@H]2[C@H](O[C@H]3CC[C@]4(C)[C@H]5CC=C6[C@@H]7CC(C)(C)CC[C@]7(C(=O)O)CC[C@@]6(C)[C@]5(C)CC[C@H]4C3(C)C)OC[C@H](O[C@@H]3O[C@H](CO)[C@@H](O)[C@H](O)[C@H]3O)[C@@H]2O)[C@H](O)[C@H](O)[C@H]1O` [HEDERACOLCHISIDE A1]?
A: IC50 (PC-3): 0.85 µM; IC50 (HT-29): 4.77 µM; IC50 (HL-60): 3.13 µM; IC50 (U-937): 2.37 µM; IC50 (A549): 5.41 µM; IC50 (HepG2): 4.21 µM

Q: Which IC50 (PC-3) does the source give for `Cc1cccc(C)c1-n1cc(CNC(=O)[C@]23CCC(C)(C)C[C@H]2C2=CC[C@@H]4[C@@]5(C)CC[C@H](O[C@@H]6OC[C@H](O[C@@H]7O[C@H](CO)[C@@H](O)[C@H](O)[C@H]7O)[C@H](O)[C@H]6O[C@@H]6O[C@@H](C)[C@H](O)[C@@H](O)[C@H]6O)C(C)(C)[C@@H]5CC[C@@]4(C)[C@]2(C)CC3)nn1` here?
A: 8.96 µM

Q: And the IC50 (HT-29)?
A: 7.66 µM

Q: And the IC50 (HL-60)?
A: 4.47 µM

Q: And the IC50 (U-937)?
A: 8.48 µM

Q: And the IC50 (A549)?
A: 6.08 µM

Q: And the IC50 (HepG2)?
A: 3.31 µM

Q: Which IC50 (PC-3) does the source give for `C[C@@H]1O[C@@H](O[C@H]2[C@H](O[C@H]3CC[C@]4(C)[C@H]5CC=C6[C@@H]7CC(C)(C)CC[C@]7(C(=O)NCc7cn(-c8cccc(Br)c8)nn7)CC[C@@]6(C)[C@]5(C)CC[C@H]4C3(C)C)OC[C@H](O[C@@H]3O[C@H](CO)[C@@H](O)[C@H](O)[C@H]3O)[C@@H]2O)[C@H](O)[C@H](O)[C@H]1O` here?
A: 0.49 µM

Q: And the IC50 (HT-29)?
A: 1.77 µM

Q: And the IC50 (HL-60)?
A: 0.99 µM

Q: What about the IC50 (U-937) of the same compound?
A: 0.72 µM

Q: What about the IC50 (A549) of the same compound?
A: 0.89 µM

Q: And the IC50 (HepG2)?
A: 7.29 µM

Q: Which results are given for `Cc1ccccc1-n1cc(CNC(=O)[C@]23CCC(C)(C)C[C@H]2C2=CC[C@@H]4[C@@]5(C)CC[C@H](O[C@@H]6OC[C@H](O[C@@H]7O[C@H](CO)[C@@H](O)[C@H](O)[C@H]7O)[C@H](O)[C@H]6O[C@@H]6O[C@@H](C)[C@H](O)[C@@H](O)[C@H]6O)C(C)(C)[C@@H]5CC[C@@]4(C)[C@]2(C)CC3)nn1`?
A: IC50 (PC-3): 5.03 µM; IC50 (HT-29): 5.35 µM; IC50 (HL-60): 3.84 µM; IC50 (U-937): 4.68 µM; IC50 (A549): 4.13 µM; IC50 (HepG2): 1.51 µM

Q: How did the IC50 (PC-3) turn out when `Cc1cccc(-n2cc(CNC(=O)[C@]34CCC(C)(C)C[C@H]3C3=CC[C@@H]5[C@@]6(C)CC[C@H](O[C@@H]7OC[C@H](O[C@@H]8O[C@H](CO)[C@@H](O)[C@H](O)[C@H]8O)[C@H](O)[C@H]7O[C@@H]7O[C@@H](C)[C@H](O)[C@@H](O)[C@H]7O)C(C)(C)[C@@H]6CC[C@@]5(C)[C@]3(C)CC4)nn2)c1` was run?
A: 3.93 µM

Q: And the IC50 (HT-29)?
A: 4.33 µM

Q: And the IC50 (HL-60)?
A: 4.64 µM

Q: What about the IC50 (U-937) of the same compound?
A: 3.93 µM

Q: And the IC50 (A549)?
A: 0.18 µM

Q: And the IC50 (HepG2)?
A: 3.49 µM

Q: Which IC50 (PC-3) does the source give for `C[C@@H]1O[C@@H](O[C@H]2[C@H](O[C@H]3CC[C@]4(C)[C@H]5CC=C6[C@@H]7CC(C)(C)CC[C@]7(C(=O)NCc7cn(-c8ccc(Cl)cc8)nn7)CC[C@@]6(C)[C@]5(C)CC[C@H]4C3(C)C)OC[C@H](O[C@@H]3O[C@H](CO)[C@@H](O)[C@H](O)[C@H]3O)[C@@H]2O)[C@H](O)[C@H](O)[C@H]1O` here?
A: 5.64 µM

Q: What about the IC50 (HT-29) of the same compound?
A: 41 µM

Q: And the IC50 (HL-60)?
A: 4.52 µM

Q: What about the IC50 (U-937) of the same compound?
A: 0.94 µM

Q: What about the IC50 (A549) of the same compound?
A: 1.87 µM

Q: And the IC50 (HepG2)?
A: 2.13 µM

Q: How did the IC50 (PC-3) turn out when `C[C@@H]1O[C@@H](O[C@H]2[C@H](O[C@H]3CC[C@]4(C)[C@H]5CC=C6[C@@H]7CC(C)(C)CC[C@]7(C(=O)NCc7cn(-c8ccccc8Cl)nn7)CC[C@@]6(C)[C@]5(C)CC[C@H]4C3(C)C)OC[C@H](O[C@@H]3O[C@H](CO)[C@@H](O)[C@H](O)[C@H]3O)[C@@H]2O)[C@H](O)[C@H](O)[C@H]1O` was run?
A: 5.28 µM

Q: What about the IC50 (HT-29) of the same compound?
A: 4.18 µM

Q: And the IC50 (HL-60)?
A: 2.26 µM

Q: What about the IC50 (U-937) of the same compound?
A: 1.03 µM

Q: And the IC50 (A549)?
A: 1.81 µM

Q: What about the IC50 (HepG2) of the same compound?
A: 3.92 µM

Q: `C[C@@H]1O[C@@H](O[C@H]2[C@H](O[C@H]3CC[C@]4(C)[C@H]5CC=C6[C@@H]7CC(C)(C)CC[C@]7(C(=O)NCc7cn(-c8ccc(C(F)(F)F)cc8)nn7)CC[C@@]6(C)[C@]5(C)CC[C@H]4C3(C)C)OC[C@H](O[C@@H]3O[C@H](CO)[C@@H](O)[C@H](O)[C@H]3O)[C@@H]2O)[C@H](O)[C@H](O)[C@H]1O` was tested. Which IC50 (PC-3) did it give?
A: 3.98 µM

Q: And the IC50 (HT-29)?
A: 4.56 µM

Q: What about the IC50 (HL-60) of the same compound?
A: 5.23 µM

Q: And the IC50 (U-937)?
A: 0.95 µM

Q: And the IC50 (A549)?
A: 4.9 µM

Q: And the IC50 (HepG2)?
A: 2.45 µM

Q: Which results are given for `O=c1[nH]cc(F)c(=O)[nH]1` [FLUOROURACIL]?
A: IC50 (PC-3): 8.45 µM; IC50 (HT-29): 22.2 µM; IC50 (HL-60): 54.5 µM; IC50 (U-937): 56.3 µM; IC50 (A549): 69.1 µM; IC50 (HepG2): 59.1 µM

Q: For `C[C@@H]1O[C@@H](O[C@H]2[C@H](O[C@H]3CC[C@]4(C)[C@H]5CC=C6[C@@H]7CC(C)(C)CC[C@]7(C(=O)NCc7cn(-c8ccccc8)nn7)CC[C@@]6(C)[C@]5(C)CC[C@H]4C3(C)C)OC[C@H](O[C@@H]3O[C@H](CO)[C@@H](O)[C@H](O)[C@H]3O)[C@@H]2O)[C@H](O)[C@H](O)[C@H]1O`, which IC50 (PC-3) is on record?
A: 45 µM

Q: What about the IC50 (HT-29) of the same compound?
A: 9.3 µM

Q: What about the IC50 (HL-60) of the same compound?
A: 18.5 µM

Q: What about the IC50 (U-937) of the same compound?
A: 8.79 µM

Q: What about the IC50 (A549) of the same compound?
A: 3.74 µM

Q: And the IC50 (HepG2)?
A: 25.8 µM
